Source: patent publication US10017515B2, “Stable amorphous ticagrelor and a process for its preparation” (Sun Pharmaceutical Industries Limited, priority 2014, dated 2018)

Columns and labels:
[1] = Stability on storage, X-ray powder diffraction (XRPD) pattern; assay type: physicochemical
Method: The X-ray powder diffraction (XRPD) pattern was recorded using a PANalytical® X'pert PRO with X'celerator® as the detector.

[2] = Stability on storage, HPLC purity; assay type: physicochemical; details: material of Example 6
Method: HPLC purity (initial and at stability at a temperature of 25° C.±2° C. at relative humidity of 60% ±5% for 1, 2, 3, and 6 months): 99.8%
HPLC purity (initial and at stability at a temperature of 5° C.±3° C. for 3 and 6 months): 99.9%

[3] = 25° C.±2° C., relative humidity 60% ±5%, for 1, 2, 3, and 6 months

Structure (SMILES): CCCSc1nc(N[C@@H]2C[C@H]2c2ccc(F)c(F)c2)c2nnn([C@@H]3C[C@H](OCCO)[C@@H](O)[C@H]3O)c2n1 [amorphous ticagrelor, (1S,2S,3R,5S)-3-[7-{[(1R,2S)-2-(3,4-difluorophenyl)cyclopropyl]amino}-5-(propylthio)-3H-[1,2,3]-triazolo[4,5-d]pyrimidin-3-yl]-5-(2-hydroxyethoxy)cyclopentane-1,2-diol]
- Change in XRPD pattern on storage ([1]; 5° C.±3° C. for 3 and 6 months): no change was observed in the XRPD pattern
- Change in XRPD pattern on storage ([1]; 5° C.±3° C. for 3 and 6 months, listed as stable amorphous ticagrelor): no change in XRPD pattern
- Change in XRPD pattern on storage [1, 3]: no change was observed in the XRPD pattern
- Change in XRPD pattern on storage ([1]; 25° C.±2° C., relative humidity 60% ±5%, for 1, 2, 3, and 6 months, listed as stable amorphous ticagrelor): no change in XRPD pattern
- HPLC purity (initial and at stability) ([2]; 5° C.±3° C. for 3 and 6 months): 99.9%
- HPLC purity (initial and at stability) [2, 3]: 99.8%
